pIC50: −log10 of the molar value.
Test system: Plasmodium berghei
Assay: Luciferase/luciferin-expressing antifolate-resistant parasites were used to infect a culture of HepG2 cells that were pre-incubated with compounds. Infected hepatocytes emit light due to the luciferase reaction. Assay results are presented as the percent inhibition of light emission compared to control. […]
Assay type: functional
Settings: sporozoite; for IC90: read-out: LUCIFERASE INFECTION ASSAY - IC90
[1] = read-out: LUCIFERASE INFECTION ASSAY - IC50

SMILES	pIC50 [1]	IC90 [µM]	other results
N#CC1=C2SC=C(c3ccc(Br)cc3)N2CCCC1=O	< 5.00	> 10	
CC(Oc1ccc(Cl)cc1Cl)C(=N)NO (stereo unspecified)	< 4.88	> 13.2	
O=C(Nc1ccccc1)c1nnsc1S(=O)(=O)c1ccc(Cl)cc1	< 5.06	> 8.69	
Cc1sc2ncnc(Sc3nnnn3-c3ccc(Cl)cc3)c2c1C	< 5.00	> 10	
COc1ccc(Nc2ncnc3scc(-c4ccc(OC)cc4)c23)cc1	5.58	4.29	
Cc1ccc(-n2c(C)cc(C3=NN=C(NC4CC4)SC3)c2C)cc1C		3.59	
Cc1ccc(S(=O)(=O)c2c(C)nn(C(C)(C)C)c2OC(=O)c2cccs2)cc1	< 5.00	> 10	
COc1cccc(C(=O)Nc2nc3ccccc3[nH]2)c1	< 5.00	> 10	
COc1ccc(CCNc2ncnc3sc(C)cc23)cc1OC	6.10	2.92	
O=S(=O)(Cc1noc(-c2cccs2)n1)c1ccc(F)cc1	< 4.99	> 10.2	
COc1cc(C(=O)OCC#N)ccc1OCc1c(C)noc1C	< 5.00	> 10	
CC(=O)c1cnc(N)nc1C	< 4.66	> 21.8	
CC(=O)Nc1ccc(CC#N)cc1	< 4.72	> 18.9	
CO[C@H]1[C@H](O)[C@H](O[C@H]2CC[C@]3(C)C4CC[C@]5(C)C(C6=CC(=O)OC6)CC[C@]5(O)C4CC[C@@H]3C2)O[C@@H](C)[C@@H]1O (stereo partly specified)		0.138	
O=C(NC1CC1)c1ccc(-c2cnc3c(NCc4cccs4)nccn23)cc1		3.14	
CN(C)CCNC(=O)c1cccc(-c2cnc3ccc(-c4cccs4)nn23)c1		3.6	
Cn1ccc2cc(-c3cnc4cnc(-c5ccccc5CO)cn34)ccc21		0.0193	
COc1ccc(C(=O)CSC2=NCCCC2)cc1	< 5.02	> 9.59	
CCN(CC)c1ccc(NC(=S)NC(=O)c2ccco2)cc1S(=O)(=O)Nc1ccc(OC)cc1	< 5.00	> 10	
Cc1nn(Cc2n[nH]c(=S)o2)c(C)c1Br	< 4.94	> 11.4	
CC(C(=O)Nc1cc(S(=O)(=O)N2CCCCC2)ccc1Cl)N1CCN(c2ccccn2)CC1 (stereo unspecified)	< 5.00	> 10	
Cn1c(N)c(C(=O)COC(=O)c2c3c(nc4ccccc24)CCCCC3)c(=O)n(C)c1=O	5.05	> 10	

SMILES	pIC50 [1]	IC90 [µM]	other results
CCC(C)N1C(=O)Cc2c1nc(N)c1c(N)nc(N3CC(C)OC(C)C3)c(C#N)c21 (stereo unspecified)	< 5.00	> 10	
Cc1noc(C)c1C(=O)ONC(=N)c1ccc(OC(F)(F)F)cc1	< 5.02	> 9.61	
COC(=O)c1c(N)[nH]c2cc(C(F)(F)F)ccc12	< 4.89	> 12.8	
O=C(Nc1ccc(N2CCCC2)cn1)c1cccc(F)c1		0.0621	
CCNc1ccc(S(=O)(=O)C(F)(F)F)cc1NC(=O)c1ccccc1NS(=O)(=O)c1ccc(F)cc1	5.84	> 10	
CS(=O)(=O)c1sc(NC(=O)Nc2ccccc2Cl)c2ccccc12	< 5.06	> 8.66	
CNC(=O)c1cccc(Nc2ccn3nc(-c4ccccc4)cc3n2)c1		3.76	
CS(=O)(=O)c1sc(NC(=O)Nc2ccc(Cl)cc2)c2c1C=CCC2	< 5.06	> 8.62	
C=CCn1c(C)cc(C(=O)Cn2c(=O)c(=O)n(Cc3ccccc3)c3ccc(Cl)cc32)c1C	< 5.00	> 10	
O=C(c1cccs1)N1CCc2[nH]nc(-c3ccc(Cl)cc3)c2C1	< 5.02	> 9.6	
COC(=O)c1sc2nccnc2c1N	< 4.80	> 15.8	
C#CCCCCCCCCC(=O)NO	< 5.00	> 10	
CCN1CCN(C(=O)C23CC4CC(C2)CC(c2ccc(C)cc2)(C4)C3)CC1	< 5.00	> 10	
Cc1nn(S(=O)(=O)c2ccc(-c3ccccn3)s2)c(C)c1Br	< 5.08	> 8.29	
CN(C)c1ccc(C2CC(=O)c3ccccc3N2)cc1 (stereo unspecified)	< 4.91	> 12.4	
CCSc1nc(SCCCN(C)C)c2c3c(sc2n1)COC(C)(C)C3	< 5.08	> 8.3	
O=C(Nc1ccc(F)cc1)c1nnsc1S(=O)(=O)c1ccc(Cl)cc1	5.18	> 8.29	
CS(=O)(=O)c1ncc(Cl)c(C(=O)C(C#N)c2nc3ccccc3s2)n1 (stereo unspecified)	5.51	3.59	
Clc1cncc2c1Sc1ccccc1N2	4.85	> 14.1	
C=Cc1c(SC)sc(C(=O)O)c1C	< 4.81	> 15.4	
Cc1ccc(-n2nc(C)c3c(C(=O)N4CCC(C)CC4)cc(-c4ccncc4)nc32)cc1	< 5.00	> 10	
C=S(=O)(NS(=O)(=O)c1ccc(-c2cc(C(F)(F)F)n(C)n2)s1)c1ccc(Cl)cc1 (stereo unspecified)	< 5.17	> 6.82	

SMILES	pIC50 [1]	IC90 [µM]	other results
OCC1CCCN(c2nn3cc(-c4ccccc4)nc3s2)C1 (stereo unspecified)		0.00758	
OCCCNc1nc(-c2ccccc2)nc2sc(-c3ccccc3)cc12	< 5.00	> 10	
Cc1cc(C(=N)NOC(=O)C(C)(C)C)cc(C(=N)NOC(=O)C(C)(C)C)c1	< 5.06	> 8.77	
O=C(NCc1ccc(C(F)(F)F)cc1)c1cc(C(F)(F)F)cc(C(F)(F)F)c1	< 5.10	> 7.95	
Cc1cc(NC(=O)C(C)(C)C)sc1C(=O)Nc1ccccc1O		0.526	
Cc1ccccc1-c1cn2c(-c3ccc(N(C)C)cc3)cnc2cn1		> 10	
CCOc1ccc2nc(NC(=O)C3Cc4ccccc4CN3S(=O)(=O)c3ccc(C)cc3)sc2c1 (stereo unspecified)	< 5.00	> 10	
CCOC(=O)NNC(=S)Nc1ccccc1OC	< 4.91	> 12.3	
CN(C)CCCNc1nc2sc3c(c2c(=O)n1-c1ccccc1)CCCCC3	< 5.08	> 8.32	
CC(C)n1cc(-c2nc(C(=O)NNC(=O)c3ccccc3Cl)cs2)c(=O)n(Cc2ccccc2)c1=O	< 5.20	> 6.3	
Cn1cc(C(=O)ONC(=N)c2ccc(C(C)(C)C)cc2)c(C(F)(F)F)n1	< 5.05	> 8.96	
CC(C)OC(=O)c1nnsc1S(=O)(=O)c1ccc(Cl)cc1	< 5.02	> 9.52	
O=C(CSCCCN1CCN(c2cccc(Cl)c2)CC1)NNC(=O)Nc1cc(Cl)cc(Cl)c1	< 5.21	> 6.22	
Cc1c(C#N)nn(-c2cccc(Cl)c2)c(=O)c1C#N	< 4.91	> 12.2	
CC1(C)C=Cc2cc(C(=N)NOC(=O)c3cccs3)ccc2O1		0.21	
Cn1nc(-c2ccc(S(=O)(=O)NCc3cccnc3)s2)cc1C(F)(F)F	< 5.09	> 8.2	
CN(CC1COc2ccccc2O1)C(=O)Nc1nc2ccccc2s1 (stereo unspecified)		> 10	
CCOC(=O)c1cc(C#N)c(Sc2ccccn2)nc1C(F)(F)F	< 5.03	> 9.34	
COC(=O)c1ccc(C(=O)OC)c(N(C)S(C)(=O)=O)c1	< 4.96	> 11	
COc1ccc(Nc2nccn3c(-c4cccc(NC(C)=O)c4)cnc23)cc1		0.122	
Cc1ccccc1NC(=O)Nc1scc(S(=O)(=O)C(C)C)c1Cl	< 5.05	> 8.85	
COc1ccc(C2CC(c3ccccc3)=NN2C(=O)CSc2ncnc3ccccc23)cc1 (stereo unspecified)	< 5.00	> 10	

SMILES	pIC50 [1]	IC90 [µM]	other results
CC(C)(C)C(=O)ONC(N)=CS(=O)(=O)c1ccc(Cl)cc1	< 5.00	> 9.92	
CC1(C)C=Cc2cc(-c3noc(-c4ccccc4)n3)ccc2O1		0.379	
C=S(=O)(NC(=O)CSc1ccc(Cl)cc1)c1ccc(C)cc1 (stereo unspecified)	< 5.03	> 9.32	
CC(NC(=O)COC(=O)c1cc(O)c2ccccc2c1O)C1CC2CCC1C2 (stereo unspecified)	< 5.00	> 10	
CC(C)(C)c1ccc(OCCNC(=O)c2cccnc2)cc1	< 4.95	> 11.1	
CN(C)Cc1ccc(C(=O)Nc2nc3ccccc3[nH]2)cc1		0.483	
Cc1sc2nc(CN3CCOCC3)nc(NCCc3c[nH]c4ccccc34)c2c1C	< 5.00	> 10	
Cc1c(C(=O)O)cc(-c2ccccc2)n1CCNC(=O)OC(C)(C)C	< 5.02	> 9.58	
O=C(Nc1ccc(N2CCOCC2)cn1)c1ccccc1		> 10	
COc1ccc(CCn2c(C)cc(C(=O)COC(=O)c3[nH]nc4ccccc34)c2C)cc1	< 5.00	> 10	
CCN(CC)c1ccc(NC(=O)c2ccc(C)cc2)c(N(CC)CC)n1	< 5.03	> 9.31	
CCCc1ccc(-c2nc(-c3cccs3)no2)cc1		0.0812	
CC(C)(C)c1ccc(NC(=O)c2nc(-c3ccccc3)n(-c3ccccc3)n2)cc1	< 5.00	> 10	
CCOc1ccc(Nc2nc(-c3c(C)nc4cc(C)ccn34)cs2)cc1		6.99	
N#CCNc1ccccc1 [(PHENYLAMINO)ACETONITRILE]	< 5.00	> 10	
O=c1c2ccccc2[nH]c2ccccc12 [ACRIDONE]		5.03	pIC50 (PBLUC_HILL_SLOPE 1.89, PBLUC_R_SQUARED 0.789, read-out: LUCIFERASE INFECTION ASSAY - IC50): 5.80
CC(=C\c1ccc(Cl)cc1)/C(C)=N/O [AP18 5]		5.3	pIC50 (HEPG2TOX_HILL_SLOPE 1.12, HEPG2TOX_R_SQUARED 0.98, PBLUC_HILL_SLOPE 2.33, PBLUC_R_SQUARED 0.772, read-out: LUCIFERASE INFECTION ASSAY - IC50): 5.68
CC12CCC(CC1=O)C2(C)C (stereo unspecified) [CAMPHOR]		> 21.7	pIC50 (FFLUC_HILL_SLOPE 14.9, FFLUC_R_SQUARED 0.342, read-out: LUCIFERASE INFECTION ASSAY - IC50): < 4.66
N#CC(C#N)=NNc1cccc(Cl)c1 [CARBONYL CYANIDE M-CHLOROPHENYLHYDRAZONE]	5.42	13.9	
O=C(O)CNC(=O)/C=C/c1ccccc1 [CINNAMOYLGLYCINE]	< 5.00	> 10	
CC1(C)N=C(N)N=C(N)N1c1ccc(Cl)cc1 [CYCLOGUANIL]		0.515	pIC50 (FFLUC_HILL_SLOPE 0.496, FFLUC_R_SQUARED 0.478, PBLUC_HILL_SLOPE 5.33, PBLUC_R_SQUARED 0.733, read-out: LUCIFERASE INFECTION ASSAY - IC50): 6.47

— ChEMBL document CHEMBL4483862, “Open-source discovery of chemical leads for next-generation chemoprotective antimalarials” (2018)
